Counter-ions that a name gives are not always drawn.
Key:
[1] = target: T1, human β2-adrenoceptor (Homo sapiens, UniProt P07550); assay: Agonistic activity, calcium influx in CHO cells (Assay 2 - Method B); assay type: cell-based; conditions: agonist, hβ2-CHO cells, read-out: Beta-2 EC50
T1 construct: expressed in transfected cells; host or cells: Chinese hamster ovary (CHO) cells (hβ2-CHO)
Text: (§1) Measurement of Agonistic Activity for Human β1-Adrenoceptor or Human β2-Adrenoceptor (Assay 2—Method B)
(§2) The agonistic activity of the compound to human β2-adrenoceptor was examined by measurement of calcium influx in Chinese hamster ovary (CHO) cells, in which recombinant human β2-adrenoceptor was expressed (hβ2-CHO cells). The cells were cultivated in DMEM F12 medium. Prior to measurement, the cells were loaded with Coelenterazine (1:2000) in Ca-Tyrode. The Ca-influx was directly measured for 45 sec (Hamamatsu FluoroBox fluorescence detector). The effect of the compound on calcium influx was determined at 8 different concentrations from 1 pM to 10 μM. The concentration to induce 50% of maximum response, 50% effective concentration (EC50), was calculated. Experiments with the same methods were performed in CHO cells expressing recombinant human β1-adrenoceptor to examine the effects of the compounds on human β1-adrenoceptor.

[2] = target: T2, human β1-adrenoceptor (Homo sapiens, UniProt P08588); assay: as above; assay type: cell-based; conditions: agonist, CHO cells expressing recombinant human β1-adrenoceptor, read-out: Beta-1 EC50
T2 construct: expressed in transfected cells; host or cells: Chinese hamster ovary (CHO) cells
T2 sequence (P08588 whole entry): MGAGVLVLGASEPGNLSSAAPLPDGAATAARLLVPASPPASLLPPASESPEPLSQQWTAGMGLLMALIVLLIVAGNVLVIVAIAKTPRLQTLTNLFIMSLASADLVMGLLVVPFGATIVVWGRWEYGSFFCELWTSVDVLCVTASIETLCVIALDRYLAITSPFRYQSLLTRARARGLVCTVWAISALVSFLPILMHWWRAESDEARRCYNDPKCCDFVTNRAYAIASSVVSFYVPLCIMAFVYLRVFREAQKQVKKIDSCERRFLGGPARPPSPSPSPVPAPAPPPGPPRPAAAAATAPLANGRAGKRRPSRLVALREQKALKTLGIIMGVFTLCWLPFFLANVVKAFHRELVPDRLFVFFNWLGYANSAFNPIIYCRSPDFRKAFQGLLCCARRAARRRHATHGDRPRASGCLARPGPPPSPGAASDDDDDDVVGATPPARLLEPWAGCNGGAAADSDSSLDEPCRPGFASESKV
Text: as §1, §2

[3] = target: T3, β3-adrenoceptor (Homo sapiens, UniProt P13945); assay: Measurement of cAMP production in SK-N-MC cells (Assay 1 - Method B); assay type: cell-based; conditions: 1 μM Atenolol, read-out: Beta-3 EC50
T3 construct: which endogenously express β1- and β3-adrenoceptors; endogenous in cells; host or cells: SK-N-MC human neuroblastoma cells
T3 sequence (P13945 whole entry): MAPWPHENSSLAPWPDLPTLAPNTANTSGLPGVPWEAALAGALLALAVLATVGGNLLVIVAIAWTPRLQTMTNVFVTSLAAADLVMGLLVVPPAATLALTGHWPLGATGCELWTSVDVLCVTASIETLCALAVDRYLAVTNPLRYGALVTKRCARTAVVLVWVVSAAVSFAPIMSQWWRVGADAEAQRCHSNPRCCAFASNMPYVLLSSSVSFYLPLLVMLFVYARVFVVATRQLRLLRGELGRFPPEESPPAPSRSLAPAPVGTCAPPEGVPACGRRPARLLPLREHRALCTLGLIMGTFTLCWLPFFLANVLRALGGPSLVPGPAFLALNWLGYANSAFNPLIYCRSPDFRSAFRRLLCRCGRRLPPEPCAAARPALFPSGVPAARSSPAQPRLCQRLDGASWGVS
Protocol: Measurement of cAMP production in SK-N-MC Cells (Assay 1—Method B)
Human neuroblastoma cell line, SK-N-MC, which endogenously express […] were utilized. In the presence or absence of 1 μM of β1-adrenoceptor selective antagonist, Atenolol, the effects of the compounds on cAMP levels were examined. SK-N-MC cells were suspended in Hank's balanced salt solution containing 20 mM Hepes, 0.1% BSA, 1 mM L-ascorbic acid sodium salt, 250 nM IBMX, and 1 μM Atenolol (pH 7.4). After incubating at 37° C. for 1 h, the compound of the present invention was added and cells were further incubated for 30 min. Total cAMP in the well was measured by cAMP ELISA kit (Tropix, Bedford, Mass.). Effect of the compound on the cAMP level was determined at 8 different concentrations from 1 pM to 10 μM. The concentration to induce 50% of maximum response, 50% effective concentration (EC50), was calculated.

[4] = target: T1, human β2-adrenoceptor; assay: Agonistic activity, cAMP levels in CHO cells (Assay 2 - Method A); assay type: cell-based; conditions: agonist, hβ2-CHO cells, read-out: Beta-2 EC50
Protocol: (§3) Measurement of Agonistic Activity for Human β1-Adrenoceptor Or Human β2-Adrenoceptor (Assay 2—Method A)
(§4) The agonistic activity of the compound to human […] was examined by measurement of cAMP levels in Chinese hamster ovary (CHO) cells, in which recombinant human […] was expressed (hβ2-CHO cells). The hβ2-CHO cells were suspended in Hank's balanced salt solution containing 20 mM Hepes, 0.1% BSA, 1 mM L-ascorbic acid sodium salt, and 250 nM IBMX (pH 7.4). After incubating at 37° C. for 30 min, the compound of the present invention was added and cells were further incubated for 30 min. Total cAMP in the well was measured by cAMP ELISA kit (Tropix, Bedford, Mass.). The effect of the compound on the cAMP level was determined at 6 different concentrations from 0.1 nM to 10 μM. The concentration to induce 50% of maximum response, 50% effective concentration (EC50), was calculated. In addition, intrinsic activity (IA) was determined as a maximum response induced by each compound, and IA was expressed as relative value compared with a response induced by 10 μM isoproterenol (i.e. cAMP level increased by 10 μM isoproterenol was taken as 100%). Experiments with the same methods were performed in CHO cells expressing recombinant human β1-adrenoceptor to examine the effects of the compounds on human β1-adrenoceptor.

[5] = target: T3, β3-adrenoceptor; assay: Measurement of cAMP production in SK-N-MC cells (Assay 1 - Method A); assay type: cell-based; conditions: 1 μM CGP20712A, read-out: Beta-3 EC50
Protocol: Measurement of cAMP Production in SK-N-MC Cells (Assay 1—Method A)
Human neuroblastoma cell line, SK-N-MC, which endogenously express β1- and β3-adrenoceptors was utilized. In the presence of 1 μM of […] selective antagonist, CGP20712A, the effects of the compounds on cAMP levels were examined. SK-N-MC cells were suspended in Hank's balanced salt solution containing 20 mM Hepes, 0.1% BSA, 1 mM L-ascorbic acid sodium salt, 250 nM IBMX, and 1 μM CGP20712A (pH 7.4). After incubating at 37° C. for 30 min, the compound of the present invention was added and cells were further incubated for 30 min. Total cAMP in the well was measured by cAMP ELISA kit (Tropix, Bedford, Mass.). Effect of the compound on the cAMP level was determined at 6 different concentrations from 0.1 nM to 10 μM. The concentration to induce 50% of maximum response, 50% effective concentration (EC50), was calculated. In addition, intrinsic activity (IA) was determined as a maximum response induced by each compound, and IA was expressed as relative value compared with a response induced by 10 μM isoproterenol (i.e. cAMP level increased by 10 μM isoproterenol was taken as 100%).

[6] = target: T1, human β2-adrenoceptor; assay: Antagonistic activity, isoproterenol-induced cAMP production in CHO cells (Assay 3); assay type: cell-based; conditions: antagonist; inhibition of cAMP production induced by 100 nM isoproterenol, hβ2-CHO cells; read-out: Beta-2 IC50
Protocol: (§5) Measurement of Antagonistic Activity for Human […] (Assay 3)
(§6) The antagonistic activity of the compound to human β2-adrenoceptor was examined by measurement of cAMP levels in the hβ2-CHO cells stimulated by isoproterenol. The hβ2-CHO cells were suspended in Hank's balanced salt solution containing 20 mM Hepes, 0.1% BSA, 1 mM L-ascorbic acid sodium salt, and 250 nM IBMX (pH 7.4). The cells were stimulated by non-selective β-adrenoceptor agonist isoproterenol at 100 nM to increase cAMP levels. After incubating at 37° C. for 30 min, the compound of the present invention was added and cells were further incubated for 30 min. Total cAMP in the well was measured by cAMP ELISA kit (Tropix, Bedford, Mass.). Inhibitory effect of the compound on the isoproterenol-induced cAMP production was determined at 6 different concentrations from 0.1 nM to 10 μM. The concentration to induce 50% of inhibitory response, 50% inhibitory concentration (IC50), was calculated. Experiments with the same methods were performed in CHO cells expressing recombinant human β1-adrenoceptor to examine the effects of the compounds on human β1-adrenoceptor.

[7] = target: T2, human β1-adrenoceptor; assay: as above; assay type: cell-based; conditions: antagonist; inhibition of cAMP production induced by 100 nM isoproterenol, CHO cells expressing human β1-adrenoceptor; read-out: Beta-1 IC50
Protocol: as §5, §6

[8] = target: T2, human β1-adrenoceptor; assay: Agonistic activity, cAMP levels in CHO cells (Assay 2 - Method A); assay type: cell-based; conditions: agonist, CHO cells expressing recombinant human β1-adrenoceptor, read-out: Beta-1 EC50
Protocol: as §3, §4

T1 sequence (P07550 whole entry): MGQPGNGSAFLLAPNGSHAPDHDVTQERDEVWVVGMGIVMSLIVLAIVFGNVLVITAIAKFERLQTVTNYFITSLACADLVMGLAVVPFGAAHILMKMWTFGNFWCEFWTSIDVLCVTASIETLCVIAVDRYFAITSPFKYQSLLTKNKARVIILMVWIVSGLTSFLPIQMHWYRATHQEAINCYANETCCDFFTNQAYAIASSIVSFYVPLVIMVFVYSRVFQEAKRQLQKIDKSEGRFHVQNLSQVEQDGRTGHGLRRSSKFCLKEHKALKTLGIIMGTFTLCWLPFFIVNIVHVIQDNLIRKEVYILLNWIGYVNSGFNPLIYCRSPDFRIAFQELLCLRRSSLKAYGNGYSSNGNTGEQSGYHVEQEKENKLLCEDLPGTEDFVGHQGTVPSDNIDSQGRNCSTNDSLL

| melting point [°C] | EC50 [5] [nM] | Compound | other results |
| --- | --- | --- | --- |
| 230 |  | O=C(O)c1ccccc1Oc1ccc2c(c1)CC[C@H](CNC[C@H](O)COc1ccccc1Cl)O2 [Example 39] |  |
|  |  | O=C(O)c1cc(F)ccc1Oc1ccc2c(c1)CC[C@H](CNC[C@H](O)COc1ccccc1)O2 [Example 44, 5-fluoro-2-{[(2R)-2-({[(2S)-2-hydroxy-3-phenoxypropyl]amino}methyl)-3,4-dihydro-2H-chromen-6-yl]oxy}benzoic Acid Hydrochloride] | EC50 [1]: > 10000 nM; EC50 [2]: > 10000 nM; EC50 [3]: 23 nM |
|  |  | CC(C)(C)c1cc(C(=O)O)ccc1Oc1ccc2c(c1)CC[C@H](CNC[C@H](O)COc1ccccc1)O2 [Example 23] | EC50 [4]: > 10000 nM |
| 138 to 142 |  | O=C(O)c1ccccc1Oc1ccc2c(c1)CC[C@H](CNC[C@H](O)COc1ccc(F)cc1F)O2 [Example 40] |  |
|  | 270 | COc1cc(C(=O)O)ccc1Oc1ccc2c(c1)CC[C@H](CNC[C@H](O)COc1ccccc1)O2 [Example 12] |  |
| 196 to 198 |  | O=C(O)c1ccccc1Oc1ccc2c(c1)CC[C@H](CNC[C@H](O)COc1c(F)cccc1F)O2 [Example 41] |  |
| 196 to 199 |  | O=C(O)c1ccccc1Oc1ccc2c(c1)CC[C@H](CNC[C@H](O)COc1ccc(F)c(Cl)c1)O2 [Example 43] |  |
|  | 14 | CN(c1ccc(C(=O)O)cc1)c1ccc2c(c1)CC[C@H](CNC[C@H](O)COc1ccccc1)O2 [Example 2, 4-[[(2R)-2-({[(2S)-2-hydroxy-3-phenoxypropyl]amino}methyl)-3,4-dihydro-2H-chromen-6-yl](methyl)amino]benzoic acid hydrochloride] |  |
|  | 26 | O=C(O)c1ccccc1Oc1ccc2c(c1)CC[C@H](CNC[C@H](O)COc1ccccc1)O2 [Example 1, 2-{[(2R)-2-({[(2S)-2-hydroxy-3-phenoxypropyl]amino}methyl)-3,4-dihydro-2H-chromen-6-yl]oxy}benzoic Acid] | IC50 [6]: 930 nM; IC50 [7]: > 10000 nM; EC50 [4]: > 10000 nM; EC50 [8]: > 10000 nM |
| 173 to 176 |  | O=C(O)c1ccccc1Oc1ccc2c(c1)CC[C@H](CNC[C@H](O)COc1ccccc1N1CCOCC1)O2 [Example 42] |  |
| 162 |  | O=C(O)c1ccccc1Oc1ccc2c(c1)CC[C@H](CNC[C@H](O)COc1ccccc1C(F)(F)F)O2 [Example 38] |  |
|  | 160 | N#Cc1ccc(Nc2ccc3c(c2)CC[C@H](CNC[C@H](O)COc2ccccc2)O3)cc1 [Example 29] |  |
| 175 | 230 | O=C(O)c1ccccc1Oc1ccc2c(c1)CC[C@H](CNC[C@H](O)COc1ccccc1-c1ccccc1)O2 [Example 37] |  |
| 209 |  | O=C(O)c1ccccc1Oc1ccc2c(c1)CC[C@H](CNC[C@H](O)COc1ccccc1F)O2 [Example 36] |  |
|  |  | COc1cc(Oc2ccc3c(c2)CC[C@H](CNC[C@H](O)COc2ccccc2)O3)c(C(=O)O)cc1OC [Example 54] | EC50 [1]: > 10000 nM; EC50 [2]: 8000 nM |
|  |  | O=C(O)c1cccc(Nc2ccc3c(c2)CC[C@H](CNC[C@H](O)COc2ccccc2)O3)c1 [Example 11] | EC50 [3]: 186 nM |

Source: patent US20050222247A1, “Chroman derivatives” (Bayer HealthCare AG, priority 2003, published 2005)
